Source: patent US9540338B2, “Substituted cinnamic acid amides for treating pain” (NIPPON ZOKI PHARMACEUTICAL CO., LTD., priority 2012, dated 2017)
Counter-ions that a name gives are not always drawn. Marks after values point to notes of the source that are not given here.

Legend:
Chung model rat = experiment: Analgesic efficacy test (2): Chung model rat, neuropathic pain model (allodynia, von Frey filament); type: in vivo, rats; conditions: mean ± standard error
Description: An analgesic efficacy test was conducted using a Chung model rat, a neuropathic pain model. Nine-week old Wistar male rats were previously bred as an experimental animal, and a model rat was then prepared in accordance with the method of Kim and Chung (Pain, 50, 355-363, 1992). Specifically, left L5 spinal nerves of rats were exposed under anesthetization with pentobarbital (40 mg/kg, intraperitoneal administration), and firmly ligated with 5-0 silk yarn at L5 dorsal root ganglion peripheral side. The animals were placed in a transparent acrylic cage of which bottom was wire netted The measurement of allodynia was carried out using von Frey filament (manufactured by North Coast Medical Inc.) and a 50% reaction threshold was calculated according to an up-down method, in accordance with a method of Chaplan et al. (J. Neurosci. Method, 53, 55-63, 1994). The 50% reaction thresholds were measured twice before injury of the spinal nerve, and those animals of which thresholds were outside the standard were removed from the operation of spinal nerve injury. On or after 14 days from the spinal nerve injury, a 50% reaction threshold was measured, and those showing thresholds of 1 g or more and less than 4 g were used as experimental animal. The group was constituted by 7 or 8 rats per group so that an average of a 50% reaction threshold for each group would be nearly even.
A solution or suspension prepared by dissolving or suspending a compound of the present invention in a 0.5% (w/v) aqueous CMC-Na solution was orally administered as a test substance in a single dose. Also, a 0.5% (w/v) aqueous CMC-Na solution was administered in the same manner to the control group for nerve injury. The measurements of allodynia were carried out with the passage of time after administration, and a 50% reaction threshold (mean±standard error) of each group at action peak was calculated. In the test for significance difference, Bartlett's test was carried out in the comparison between multiple groups of the group administered with test substance with the control group for nerve injury. In the case of homoscedasticity, Dunnett's multiple comparison test of parametrics, and in the case of heteroscedasticity, Dunnett's multiple comparison test of non-parametrics were used. In all cases, significance difference was considered to be found at P<0.05 (indicated as “*” in the tables).

[1] = oral 1 mg/kg, measurement point 90 minute (action peak)
[2] = oral 10 mg/kg, measurement point 90 minute (action peak)
[3] = oral 1 mg/kg, measurement point 60 minute (action peak)
[4] = oral 10 mg/kg, measurement point 60 minute (action peak)

Row | Structure (SMILES) | melting point | also measured
1 | Cl.O=C(/C=C/c1ccccc1F)NCCc1cccnc1 | 116 to 117 °C | –
2 | CN(C)CCCCNC(=O)/C=C/c1ccccc1F.Cl | 107 to 108 °C | –
3 | Cl.O=C(/C=C/c1cccc(C(=O)O)c1)NCCn1ccnc1 | 195 to 197 °C | –
4 | Cl.O=C(/C=C/c1ccc(C(=O)O)cc1)NCCn1ccnc1 | 237 to 238 °C | –
5 | Cl.O=C(/C=C/c1ccccc1C(F)(F)F)NCCCN1CCOCC1 | 197 to 198 °C | –
6 | Cl.O=C(/C=C/c1ccccc1F)NCCCN1CCCCC1 | 166 to 167 °C | –
7 | Cl.O=C(/C=C/c1ccccc1F)NCCCNC1CCCCC1 | 227 to 228 °C | –
8 | C/C(=C\c1ccccc1F)C(=O)NCCCN1CC[S+]([O-])CC1.Cl | 180 to 181 °C | –
9 | O=C(/C=C/c1ccccc1F)NCCCN1CCNCC1 (as salt: hydrochloride) | 143 to 144 °C | –
10 | O=C(/C=C/c1ccccc1F)NCCc1ccccn1 (as salt: hydrochloride) [Compound 9, (E)-3-(2-Fluorophenyl)-N-[2-(2-pyridyl)ethyl]-2-propenamide hydrochloride] | 86 to 87 °C | –
11 | CN1CCN(CCCNC(=O)/C=C/c2ccccc2F)CC1 (as salt: hydrochloride) [Compound 15, (E)-3-(2-Fluorophenyl)-N-[3-(4-methylpiperazin-1-yl)propyl]-2-propenamide dihydrochloride] | 133 to 138 °C | –
12 | O=C(/C=C/c1ccccc1F)NCCN1CCNCC1 (as salt: hydrochloride) [Compound 16, (E)-3-(2-Fluorophenyl)-N-[2-(piperazin-1-yl)ethyl]-2-propenamide dihydrochloride] | 212 to 213 °C | –
13 | Nc1ccccc1CCNC(=O)/C=C/c1ccccc1F [Compound 19, (E)-N-[2-(2-Aminophenyl)ethyl]-3-(2-fluorophenyl)-2-propenamide] | 128 to 129 °C | –
14 | O=C(/C=C/c1ccccc1F)NCCn1cnc2ccccc21 [Compound 22, (E)-N-[2-(Benzoimidazol-1-yl)ethyl]-3-(2-fluorophenyl)-2-propenamide] | 143 to 145 °C | –
15 | O=C(/C=C/c1ccc(F)cc1F)NCCn1ccnc1 [Compound 23, (E)-3-(2,4-Difluorophenyl)-N-[2-(imidazol-1-yl)ethyl]-2-propenamide] | 113 to 115 °C | 50% Reaction Threshold, Group Administered with Test Substance, After Administration (Chung model rat; [1]): 8.22 ± 1.43* g; 50% Reaction Threshold, Group Administered with Test Substance, After Administration (Chung model rat; [2]): 9.81 ± 1.27* g
16 | O=C(/C=C/c1ccccc1F)NCCn1cncn1 [Compound 39, (E)-3-(2-Fluorophenyl)-N-[2-([1,2,4]triazol-1-yl)ethyl]-2-propenamide dihydrochloride] | – | 50% Reaction Threshold, Group Administered with Test Substance, After Administration (Chung model rat; [1]): 3.55 ± 0.59 g; 50% Reaction Threshold, Group Administered with Test Substance, After Administration (Chung model rat; [2]): 4.05 ± 0.48* g
17 | Cl.O=C(/C=C/c1ccccc1F)NCCCn1ccnc1 [Compound 45, (E)-3-(2-Fluorophenyl)-N-[3-(imidazol-1-yl)propyl]-2-propenamide hydrochloride] | – | 50% Reaction Threshold, Group Administered with Test Substance, After Administration (Chung model rat; [1]): 8.81 ± 1.05* g; 50% Reaction Threshold, Group Administered with Test Substance, After Administration (Chung model rat; [2]): 12.23 ± 1.10* g
18 | O=C(/C=C/c1ccccc1C(=O)O)NCCn1ccnc1 [Compound 47, (E)-3-(2-Carboxyphenyl)-N-[(2-imidazol-1-yl)ethyl]-2-propenamide] | – | 50% Reaction Threshold, Group Administered with Test Substance, After Administration (Chung model rat; [3]): 10.58 ± 1.74* g; 50% Reaction Threshold, Group Administered with Test Substance, After Administration (Chung model rat; [4]): 13.58 ± 0.67* g
19 | O=C(/C=C/c1ccccc1F)Nc1cccc(-c2ccn[nH]2)c1 [Compound 52, (E)-3-(2-Fluorophenyl)-N-[3-(2H-pyrazol-3-yl)phenyl]-2-propenamide] | – | 50% Reaction Threshold, Group Administered with Test Substance, After Administration (Chung model rat; oral 1 mg/kg, measurement point 30 minute (action peak)): 7.42 ± 1.14* g; 50% Reaction Threshold, Group Administered with Test Substance, After Administration (Chung model rat; oral 10 mg/kg, measurement point 30 minute (action peak)): 9.12 ± 2.00* g

Continued, in another order:

Row | melting point | Structure (SMILES) | also measured
20 | 118 to 120 °C | O=C(/C=C/c1cc(F)ccc1F)NCCn1ccnc1 [Compound 24, (E)-3-(2,5-Difluorophenyl)-N-[2-(imidazol-1-yl)ethyl]-2-propenamide] | 50% Reaction Threshold, Group Administered with Test Substance, After Administration (Chung model rat; [3]): 4.63 ± 0.36 g; 50% Reaction Threshold, Group Administered with Test Substance, After Administration (Chung model rat; [4]): 7.85 ± 0.99* g
21 | 80 to 81 °C | O=C(/C=C/c1cccc(F)c1)NCCCN1CCOCC1 [Compound 25, (E)-3-(3-Fluorophenyl)-N-(3-morpholinopropyl)-2-propenamide] | 50% Reaction Threshold, Group Administered with Test Substance, After Administration (Chung model rat; [3]): 8.17 ± 1.09* g; 50% Reaction Threshold, Group Administered with Test Substance, After Administration (Chung model rat; [4]): 9.68 ± 1.20* g
22 | 88 to 89 °C | O=C(/C=C/c1ccc(F)cc1)NCCCN1CCOCC1 [Compound 26, (E)-3-(4-Fluorophenyl)-N-(3-morpholinopropyl)-2-propenamide] | 50% Reaction Threshold, Group Administered with Test Substance, After Administration (Chung model rat; [3]): 10.25 ± 1.07* g; 50% Reaction Threshold, Group Administered with Test Substance, After Administration (Chung model rat; [4]): 14.33 ± 0.67* g
23 | 97 to 99 °C | O=C(/C=C/c1cccc(F)c1F)NCCCN1CCOCC1 [Compound 27, (E)-3-(2,3-Difluorophenyl)-N-(3-morpholinopropyl)-2-propenamide] | –
24 | 94 to 95 °C | O=C(/C=C/c1ccc(F)cc1F)NCCCN1CCOCC1 [Compound 28, (E)-3-(2,4-Difluorophenyl)-N-(3-morpholinopropyl)-2-propenamide] | 50% Reaction Threshold, Group Administered with Test Substance, After Administration (Chung model rat; [3]): 8.44 ± 1.81* g; 50% Reaction Threshold, Group Administered with Test Substance, After Administration (Chung model rat; [4]): 12.05 ± 1.44* g
25 | 71 to 72 °C | O=C(/C=C/c1cc(F)ccc1F)NCCCN1CCOCC1 [Compound 29, (E)-3-(2,5-Difluorophenyl)-N-(3-morpholinopropyl)-2-propenamide] | 50% Reaction Threshold, Group Administered with Test Substance, After Administration (Chung model rat; [3]): 5.10 ± 0.42 g; 50% Reaction Threshold, Group Administered with Test Substance, After Administration (Chung model rat; [4]): 10.51 ± 1.15* g
26 | 75 to 76 °C | O=C(/C=C/c1c(F)cccc1F)NCCCN1CCOCC1 [Compound 30, (E)-3-(2,6-Difluorophenyl)-N-(3-morpholinopropyl)-2-propenamide] | –
27 | 127 to 128 °C | O=C(/C=C/c1ccc(F)c(F)c1)NCCCN1CCOCC1 [Compound 31, (E)-3-(3,4-Difluorophenyl)-N-(3-morpholinopropyl)-2-propenamide] | –
28 | 102 to 103 °C | O=C(/C=C/c1ccc(C(F)(F)F)cc1F)NCCCN1CCOCC1 [Compound 32, (E)-3-(2-Fluoro-4-trifluoromethylphenyl)-N-(3-morpholinopropyl)-2-propenamide] | –
29 | 83 to 84 °C | O=C(/C=C/c1ccccc1F)NCCN1CCCC1 [Compound 35, (E)-3-(2-Fluorophenyl)-N-[2-(pyrrolidin-1-yl)ethyl]-2-propenamide] | –
30 | 80 to 81 °C | O=C(/C=C/c1ccccc1F)NCCN1CCCCCC1 [Compound 36, (E)-N-[(2-Azepan-1-yl)ethyl]-3-(2-fluorophenyl)-2-propenamide] | –
31 | 123 to 124 °C | COc1ccc(CCNC(=O)/C=C/c2ccccc2F)cc1 [Compound 37, (E)-3-(2-Fluorophenyl)-N-[2-(4-methoxyphenyl)ethyl]-2-propenamide] | –
32 | 96 to 98 °C | O=C(/C=C/c1ccccc1F)NCCn1ccc2ccccc21 [Compound 41, (E)-3-(2-Fluorophenyl)-N-[2-(indol-1-yl)ethyl]-2-propenamide] | –
33 | 163 to 164 °C | O=C(/C=C/c1ccccc1F)NCCn1ccnc1-c1ccccc1 [Compound 44, (E)-3-(2-Fluorophenyl)-N-[2-(2-phenylimidazol-1-yl)ethyl]-2-propenamide] | –
34 | 116 to 118 °C | O=C(/C=C/c1ccccc1F)Nc1ccc(-c2ccn[nH]2)cc1 [Compound 51, (E)-3-(2-Fluorophenyl)-N-[4-(2H-pyrazol-3-yl)phenyl]-2-propenamide] | –
35 | 204 to 206 °C | O=C(/C=C/c1ccccc1F)Nc1ccc(-c2ccno2)cc1 [Compound 53, (E)-3-(2-Fluorophenyl)-N-[4-(isoxazol-5-yl)phenyl]-2-propenamide] | –
36 | 110 to 111 °C | N#C/C(=C\c1ccc(F)cc1)C(=O)NCCCN1CCOCC1 [Compound 58, (E)-2-Cyano-3-(4-fluorophenyl)-N-(3-morpholinopropyl)-2-propenamide] | –
37 | 193 to 195 °C | O=C(O)CCNC(=O)/C=C/c1ccccc1F [Compound 66, 3-{[(E)-3-(2-Fluorophenyl)-2-propenoyl]amino}propanoic acid] | –
